Laboratory results from ChEMBL document CHEMBL3885861, “Open TG-GATES”.

Organism: Rattus norvegicus
Test: Open TG-GATES - Regimen: Daily Repeat
Format: toxicity, organism-based, Sprague-Dawley
Parameters: regimen Daily Repeat, gender Male, age 6 weeks
Conditions: in vivo, po, route gavage; for Bas / Eos / Fbg / Hb / MCH / MCHC / MCV / Mono / Neu / Plat / RBC / Ret / WBC / APTT / Ht / Lym / PT: tissue Blood; for KIDNEY_L / KIDNEY_R / KIDNEY_TOTAL: tissue Kidney; for LIVER: tissue Liver; for ALP / ALT / AST / BUN / CRE / Ca / DBIL / GLC / IP / K / LDH / Na / PL / RALB / TBIL / TC / TP / gamma-GTP / TG: tissue Plasma
[1] = 0 mg/kg, 72 h, dose level Control, time 3 day
[2] = 0 mg/kg, […], dose level Control, time 7 day
[3] = 0 mg/kg, […], dose level Control, time 14 day
[4] = 0 mg/kg, […], dose level Control, time 28 day
[5] = 100 mg/kg, 72 h, dose level Low, time 3 day
[6] = 100 mg/kg, […], dose level Low, time 7 day
[7] = 100 mg/kg, […], dose level Low, time 14 day
[8] = 100 mg/kg, […], dose level Low, time 28 day

Compound: O=C(O)c1cn(C2CC2)c2cc(N3CCNCC3)c(F)cc2c1=O [CIPROFLOXACIN]
- TERMINAL_BW [1]: 198.1 g
- Bas [1]: 0%
- Eos [1]: 1.2%
- Fbg [1]: 228 mg/dL
- Hb [1]: 13.2 g/dL
- MCH [1]: 22.2 pg
- MCHC [1]: 33.5%
- MCV [1]: 66.2 fL
- Mono [1]: 7.6%
- Neu [1]: 12%
- Plat [1]: 99.9 x10_4/uL
- RBC [1]: 595 x10_4/ul
- Ret [1]: 8.5%
- WBC [1]: 105.1 x10_2/uL
- KIDNEY_L [1]: 0.9 g
- KIDNEY_R [1]: 0.9 g
- KIDNEY_TOTAL [1]: 1.8 g
- LIVER [1]: 9.9 g
- ALP [1]: 993.2 IU/L
- ALT [1]: 38.8 IU/L
- AST [1]: 66 IU/L
- BUN [1]: 17.2 mg/dL
- CRE [1]: 0.5 mg/dL
- Ca [1]: 11.4 mg/dL
- DBIL [1]: 0.002 mg/dL
- GLC [1]: 182 mg/dL
- IP [1]: 7.9 mg/dL
- K [1]: 5.1 meq/L
- LDH [1]: 88.4 IU/L
- Na [1]: 139.4 meq/L
- PL [1]: 157 mg/dL
- RALB [1]: 4 g/dL
- TBIL [1]: 0.3 mg/dL
- TC [1]: 84 mg/dL
- TP [1]: 5.9 g/dL
- gamma-GTP [1]: 1.8 IU/L
- TERMINAL_BW [2]: 237.8 g
- TERMINAL_BW [3]: 285 g
- TERMINAL_BW [4]: 358.5 g
- APTT [2]: 16.9 s
- Bas [2]: 0%
- Eos [2]: 0.8%
- Fbg [2]: 230.2 mg/dL
- Hb [2]: 12.6 g/dL
- Ht [2]: 39.6%
- Lym [2]: 82.2%
- MCH [2]: 20.8 pg
- MCHC [2]: 31.8%
- MCV [2]: 65.5 fL
- Mono [2]: 7%
- Neu [2]: 10%
- PT [2]: 11.9 s
- Plat [2]: 101.9 x10_4/uL
- RBC [2]: 605.2 x10_4/ul
- Ret [2]: 6.9%
- WBC [2]: 121.2 x10_2/uL
- APTT [3]: 16.4 s
- Bas [3]: 0%
- Eos [3]: 1%
- Fbg [3]: 250.2 mg/dL
- Hb [3]: 14 g/dL
- Ht [3]: 42.3%
- MCH [3]: 21 pg
- MCHC [3]: 33.1%
- MCV [3]: 63.3 fL
- Mono [3]: 4.4%
- Neu [3]: 11%
- PT [3]: 9.8 s
- Plat [3]: 111.2 x10_4/uL
- RBC [3]: 669.4 x10_4/ul
- Ret [3]: 5.7%
- WBC [3]: 131.2 x10_2/uL
- APTT [4]: 17.2 s
- Bas [4]: 0%
- Eos [4]: 1%
- Fbg [4]: 235.2 mg/dL
- Hb [4]: 14.8 g/dL
- Ht [4]: 44%
- MCH [4]: 19.4 pg
- MCHC [4]: 33.6%
- MCV [4]: 57.8 fL
- Mono [4]: 3.4%
- Neu [4]: 11%
- PT [4]: 11.3 s
- Plat [4]: 107.5 x10_4/uL
- RBC [4]: 762.2 x10_4/ul
- Ret [4]: 2.8%
- WBC [4]: 132.8 x10_2/uL
- KIDNEY_L [2]: 1.1 g
- KIDNEY_R [2]: 1.1 g
- KIDNEY_TOTAL [2]: 2.1 g
- KIDNEY_L [3]: 1.2 g
- KIDNEY_R [3]: 1.2 g
- KIDNEY_TOTAL [3]: 2.4 g
- KIDNEY_L [4]: 1.3 g
- KIDNEY_R [4]: 1.3 g
- KIDNEY_TOTAL [4]: 2.5 g
- LIVER [2]: 11.7 g
- LIVER [3]: 13.3 g
- ALP [2]: 938.8 IU/L
- ALT [2]: 31.6 IU/L
- AST [2]: 61.8 IU/L
- BUN [2]: 19.6 mg/dL
- CRE [2]: 0.5 mg/dL
- Ca [2]: 11.3 mg/dL
- DBIL [2]: 0.01 mg/dL
- GLC [2]: 186.8 mg/dL
- IP [2]: 8.6 mg/dL
- K [2]: 5 meq/L
- LDH [2]: 67 IU/L
- Na [2]: 140.6 meq/L
- PL [2]: 158.4 mg/dL
- RALB [2]: 3.9 g/dL
- TBIL [2]: 0.3 mg/dL
- TC [2]: 90.2 mg/dL
- TG [2]: 93.6 mg/dL
- TP [2]: 5.7 g/dL
- gamma-GTP [2]: 1.2 IU/L
- ALP [3]: 844.4 IU/L
- ALT [3]: 31.4 IU/L
- AST [3]: 58.4 IU/L
- BUN [3]: 18.8 mg/dL
- CRE [3]: 0.6 mg/dL
- DBIL [3]: 0.006 mg/dL
- GLC [3]: 185.6 mg/dL
- IP [3]: 7.9 mg/dL
- K [3]: 4.7 meq/L
- LDH [3]: 80.6 IU/L
- Na [3]: 138.8 meq/L
- PL [3]: 172.8 mg/dL
- RALB [3]: 4.1 g/dL
- TBIL [3]: 0.2 mg/dL
- TC [3]: 82.2 mg/dL
- TG [3]: 150.6 mg/dL
- TP [3]: 6.3 g/dL
- gamma-GTP [3]: 1.2 IU/L
- ALP [4]: 566.6 IU/L
- ALT [4]: 28.8 IU/L
- AST [4]: 57.6 IU/L
- BUN [4]: 18.8 mg/dL
- CRE [4]: 0.4 mg/dL
- Ca [4]: 10.7 mg/dL
- DBIL [4]: 0.048 mg/dL
- GLC [4]: 195.6 mg/dL
- IP [4]: 7 mg/dL
- K [4]: 4.3 meq/L
- LDH [4]: 94.4 IU/L
- Na [4]: 140.2 meq/L
- PL [4]: 150.6 mg/dL
- RALB [4]: 4.1 g/dL
- TBIL [4]: 0.3 mg/dL
- TC [4]: 75.4 mg/dL
- TG [4]: 126.4 mg/dL
- TP [4]: 6.6 g/dL
- gamma-GTP [4]: 1.4 IU/L
- TERMINAL_BW [5]: 197.9 g
- APTT [5]: 16.8 s
- Bas [5]: 0%
- Eos [5]: 1%
- Fbg [5]: 236.3 mg/dL
- Hb [5]: 13.2 g/dL
- Ht [5]: 39.6%
- MCV [5]: 63.9 fL
- Mono [5]: 6.2%
- Neu [5]: 13%
- Plat [5]: 90 x10_4/uL
- RBC [5]: 621.4 x10_4/ul
- Ret [5]: 6.4%
- WBC [5]: 94.6 x10_2/uL
- KIDNEY_L [5]: 0.9 g
- KIDNEY_R [5]: 0.9 g
- KIDNEY_TOTAL [5]: 1.8 g
- LIVER [5]: 8.9 g
- ALP [5]: 806.8 IU/L
- ALT [5]: 44.4 IU/L
- AST [5]: 64 IU/L
- CRE [5]: 0.5 mg/dL
- DBIL [5]: 0.012 mg/dL
- GLC [5]: 182 mg/dL
- IP [5]: 8.4 mg/dL
- K [5]: 5.3 meq/L
- LDH [5]: 83.2 IU/L
- Na [5]: 139 meq/L
- PL [5]: 140.6 mg/dL
- RALB [5]: 3.8 g/dL
- TBIL [5]: 0.3 mg/dL
- TC [5]: 78.6 mg/dL
- TG [5]: 76.6 mg/dL
- TP [5]: 5.6 g/dL
- gamma-GTP [5]: 1.6 IU/L
- TERMINAL_BW [6]: 227.7 g
- TERMINAL_BW [7]: 280.3 g
- TERMINAL_BW [8]: 387.5 g
- Bas [6]: 0%
- Eos [6]: 0.8%
- Fbg [6]: 221.6 mg/dL
- Hb [6]: 12.9 g/dL
- Ht [6]: 38.6%
- Lym [6]: 80%
- MCH [6]: 21.2 pg
- MCV [6]: 63.8 fL
- Mono [6]: 5.8%
- Neu [6]: 13.8%
- Plat [6]: 94 x10_4/uL
- RBC [6]: 605.6 x10_4/ul
- Ret [6]: 6.4%
- WBC [6]: 126.8 x10_2/uL
- APTT [7]: 16.3 s
- Bas [7]: 0%
- Eos [7]: 0.8%
- Fbg [7]: 243.6 mg/dL
- Hb [7]: 14 g/dL
- Ht [7]: 41.8%
- Lym [7]: 85.8%
- MCHC [7]: 33.4%
- MCV [7]: 61.8 fL
- Mono [7]: 5.4%
- Neu [7]: 8.2%
- PT [7]: 10.2 s
- Plat [7]: 102.2 x10_4/uL
- RBC [7]: 678.2 x10_4/ul
- Ret [7]: 6.3%
- WBC [7]: 155.4 x10_2/uL
- APTT [8]: 17.3 s
- Bas [8]: 0%
- Eos [8]: 1%
- Fbg [8]: 233.2 mg/dL
- Hb [8]: 14.7 g/dL
- Ht [8]: 44.2%
- Lym [8]: 85.2%
- MCH [8]: 19.8 pg
- MCHC [8]: 33.4%
- MCV [8]: 59.3 fL
- Mono [8]: 4.4%
- Neu [8]: 9.4%
- PT [8]: 11.4 s
- Plat [8]: 105.1 x10_4/uL
- RBC [8]: 746.2 x10_4/ul
- Ret [8]: 3%
- WBC [8]: 131.4 x10_2/uL
- KIDNEY_L [6]: 1 g
- KIDNEY_R [6]: 1 g
- KIDNEY_TOTAL [6]: 2.1 g
- KIDNEY_L [7]: 1.1 g
- KIDNEY_R [7]: 1.1 g
- KIDNEY_TOTAL [7]: 2.3 g
- KIDNEY_L [8]: 1.4 g
- KIDNEY_R [8]: 1.4 g
- KIDNEY_TOTAL [8]: 2.8 g
- LIVER [6]: 10.7 g
- LIVER [8]: 15.3 g
- ALP [6]: 932.4 IU/L
- ALT [6]: 37.2 IU/L
- AST [6]: 65.8 IU/L
- BUN [6]: 18.2 mg/dL
- CRE [6]: 0.5 mg/dL
- Ca [6]: 11.4 mg/dL
- DBIL [6]: 0 mg/dL
- GLC [6]: 184 mg/dL
- IP [6]: 8.4 mg/dL
- K [6]: 4.9 meq/L
- LDH [6]: 56 IU/L
- Na [6]: 139.8 meq/L
- PL [6]: 149.8 mg/dL
- RALB [6]: 3.9 g/dL
- TBIL [6]: 0.3 mg/dL
- TG [6]: 74.8 mg/dL
- TP [6]: 5.8 g/dL
- gamma-GTP [6]: 1.6 IU/L
- ALP [7]: 887.8 IU/L
- ALT [7]: 33 IU/L
- AST [7]: 66.4 IU/L
- BUN [7]: 21.2 mg/dL
- CRE [7]: 0.5 mg/dL
- Ca [7]: 10.9 mg/dL
- DBIL [7]: 0.022 mg/dL
- GLC [7]: 195.6 mg/dL
- IP [7]: 8.4 mg/dL
- K [7]: 4.9 meq/L
- LDH [7]: 88 IU/L
- Na [7]: 139.2 meq/L
- PL [7]: 175 mg/dL
- RALB [7]: 4 g/dL
- TBIL [7]: 0.3 mg/dL
- TC [7]: 89 mg/dL
- TG [7]: 128 mg/dL
- TP [7]: 6.1 g/dL
- gamma-GTP [7]: 2.2 IU/L
- ALP [8]: 630 IU/L
- ALT [8]: 29 IU/L
- AST [8]: 54.2 IU/L
- BUN [8]: 17.8 mg/dL
- CRE [8]: 0.4 mg/dL
- Ca [8]: 11 mg/dL
- DBIL [8]: 0.024 mg/dL
- GLC [8]: 185.4 mg/dL
- IP [8]: 7.5 mg/dL
- K [8]: 4.6 meq/L
- LDH [8]: 75.6 IU/L
- Na [8]: 140 meq/L
- PL [8]: 141.6 mg/dL
- RALB [8]: 4 g/dL
- TBIL [8]: 0.3 mg/dL
- TC [8]: 72.8 mg/dL
- TG [8]: 108.8 mg/dL
- TP [8]: 6.4 g/dL
- gamma-GTP [8]: 1.4 IU/L
- TERMINAL_BW (300 mg/kg, 72 h, dose level Middle, time 3 day): 198.3 g
